# From ChEMBL document CHEMBL1201862, “PubChem BioAssay data set” (2004)
# Calls of active or inactive are those of the source.
# Tests used:
# [1] = target: Ion channel NompC (Danio rerio, UniProt Q7T1G6); experiment: Fluorescence counterscreen assay for TRPML3 agonists: dose response cell-based high-throughput screening assay to identify agonists of the transient receptor potential channel N1 (TRPN1). [Related pubchem assays: 1526, 1424, 1448 ]; format: functional
# [2] = target: Mucolipin-3 (Homo sapiens, UniProt Q8TDD5); experiment: Dose response cell-based high-throughput screening assay for agonists of the transient receptor potential channel ML3 (TRPML3). [Related pubchem assays: 1526, 1424, 1448 ]; format: functional
# Mucolipin-3, sequence (Q8TDD5 whole entry): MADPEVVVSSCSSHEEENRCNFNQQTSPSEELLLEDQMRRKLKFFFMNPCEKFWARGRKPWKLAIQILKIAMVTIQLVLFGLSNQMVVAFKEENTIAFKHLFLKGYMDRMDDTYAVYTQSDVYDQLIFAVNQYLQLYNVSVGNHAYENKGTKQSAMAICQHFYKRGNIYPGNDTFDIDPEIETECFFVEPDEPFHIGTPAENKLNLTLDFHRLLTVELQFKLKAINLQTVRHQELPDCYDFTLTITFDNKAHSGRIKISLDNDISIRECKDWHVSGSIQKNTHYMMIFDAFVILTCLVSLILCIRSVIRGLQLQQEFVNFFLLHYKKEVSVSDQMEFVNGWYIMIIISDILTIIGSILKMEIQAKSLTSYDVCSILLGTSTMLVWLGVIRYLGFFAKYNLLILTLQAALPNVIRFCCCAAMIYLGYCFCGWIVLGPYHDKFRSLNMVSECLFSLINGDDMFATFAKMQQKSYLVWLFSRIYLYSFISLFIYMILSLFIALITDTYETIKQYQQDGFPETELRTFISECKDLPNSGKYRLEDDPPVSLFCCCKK
# [3] = Trypanosoma cruzi growth suppression in host cells – NIH3T3 host cells, beta-gal luminescence, confirmation (AID 2044); format: functional, cell-based;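 note: intracellular parasites grown in NIH/3T3 mouse fibroblasts as host cells; luminescent beta-galactosidase reporter signal from transgenic T. cruzi replicating inside host cells; inhibitors lower the luminescence signal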
# [4] = cells
# [5] = NIH3T3 cell viability loss – ATP luminescence, mouse fibroblasts, counter-screen, dose response (AID 2010); format: functional, cell-based;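 note: cells exposed to compound for about 90 hours before reading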
# [6] = target: T1, Estrogen receptor beta (Homo sapiens, UniProt Q92731);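 note: recombinant ER-beta bound to coactivator SRC1 peptide in presence of estradiol agonist; inhibitors block coactivator peptide binding and lower the FRET signal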
# T1 sequence (Q92731 whole entry): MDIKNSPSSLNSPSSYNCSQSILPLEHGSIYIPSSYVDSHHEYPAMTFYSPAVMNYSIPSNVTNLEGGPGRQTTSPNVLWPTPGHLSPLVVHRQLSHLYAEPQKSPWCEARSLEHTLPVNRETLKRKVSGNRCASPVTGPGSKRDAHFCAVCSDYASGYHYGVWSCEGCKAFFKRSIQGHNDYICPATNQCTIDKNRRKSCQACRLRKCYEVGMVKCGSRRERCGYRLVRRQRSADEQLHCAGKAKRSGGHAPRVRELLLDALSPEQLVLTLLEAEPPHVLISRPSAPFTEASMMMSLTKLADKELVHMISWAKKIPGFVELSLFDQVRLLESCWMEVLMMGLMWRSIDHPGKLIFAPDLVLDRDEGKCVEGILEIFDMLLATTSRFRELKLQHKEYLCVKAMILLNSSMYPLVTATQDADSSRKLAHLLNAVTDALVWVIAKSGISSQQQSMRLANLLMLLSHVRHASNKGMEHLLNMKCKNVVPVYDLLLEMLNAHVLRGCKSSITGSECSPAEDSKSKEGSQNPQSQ
# [7] = target: T1, Estrogen receptor beta; experiment: blockers of SRC-3 recruitment to ERβ – biochemical, ELISA, streptavidin-HRP readout, orthogonal assay, confirmation (AID 1060)
# [8] = HPDE-C7 pancreatic duct cell viability loss – fluorescence, HTS (AID 430); format: functional, cell-based; settings: Homo sapiens
# [9] = target: T2, Protein RecA (Mycobacterium tuberculosis, UniProt P9WHJ3); experiment: Fluorescence Cell-Free Homogeneous Dose Retest to Identify Inhibitors of RecA-Intein Splicing Activity. [Related pubchem assays (depositor defined):AID2097, AID2223, AID489010, AID492950]; format: functional
# T2 sequence (P9WHJ3 whole entry): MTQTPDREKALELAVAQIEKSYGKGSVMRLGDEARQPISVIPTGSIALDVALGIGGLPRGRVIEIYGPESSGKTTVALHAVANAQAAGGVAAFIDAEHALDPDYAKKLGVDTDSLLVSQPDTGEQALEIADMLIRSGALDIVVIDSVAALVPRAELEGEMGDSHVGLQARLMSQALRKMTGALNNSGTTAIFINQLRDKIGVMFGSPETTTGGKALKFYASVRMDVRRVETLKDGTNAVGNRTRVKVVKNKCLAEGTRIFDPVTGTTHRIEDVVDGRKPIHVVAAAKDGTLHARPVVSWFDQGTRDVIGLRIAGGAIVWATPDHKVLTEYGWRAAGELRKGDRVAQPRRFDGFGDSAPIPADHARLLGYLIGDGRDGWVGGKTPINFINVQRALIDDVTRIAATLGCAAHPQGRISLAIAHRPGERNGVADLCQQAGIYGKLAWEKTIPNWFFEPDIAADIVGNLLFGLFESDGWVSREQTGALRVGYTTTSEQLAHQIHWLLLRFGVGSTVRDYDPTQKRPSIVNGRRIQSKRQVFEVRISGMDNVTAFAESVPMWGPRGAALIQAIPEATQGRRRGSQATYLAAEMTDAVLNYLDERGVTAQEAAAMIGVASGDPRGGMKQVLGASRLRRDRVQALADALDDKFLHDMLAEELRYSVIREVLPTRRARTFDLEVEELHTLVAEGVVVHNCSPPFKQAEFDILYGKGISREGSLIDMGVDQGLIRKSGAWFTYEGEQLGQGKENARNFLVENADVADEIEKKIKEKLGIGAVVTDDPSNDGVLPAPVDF
# [10] = target: T3, Replicative DNA helicase DnaB (Mycobacterium tuberculosis, UniProt P9WMR3); experiment: DnaB intein splicing inhibitors, dose response, biochemical, cell-free fluorescence (AID 449749); format: functional
# T3 sequence (P9WMR3 whole entry): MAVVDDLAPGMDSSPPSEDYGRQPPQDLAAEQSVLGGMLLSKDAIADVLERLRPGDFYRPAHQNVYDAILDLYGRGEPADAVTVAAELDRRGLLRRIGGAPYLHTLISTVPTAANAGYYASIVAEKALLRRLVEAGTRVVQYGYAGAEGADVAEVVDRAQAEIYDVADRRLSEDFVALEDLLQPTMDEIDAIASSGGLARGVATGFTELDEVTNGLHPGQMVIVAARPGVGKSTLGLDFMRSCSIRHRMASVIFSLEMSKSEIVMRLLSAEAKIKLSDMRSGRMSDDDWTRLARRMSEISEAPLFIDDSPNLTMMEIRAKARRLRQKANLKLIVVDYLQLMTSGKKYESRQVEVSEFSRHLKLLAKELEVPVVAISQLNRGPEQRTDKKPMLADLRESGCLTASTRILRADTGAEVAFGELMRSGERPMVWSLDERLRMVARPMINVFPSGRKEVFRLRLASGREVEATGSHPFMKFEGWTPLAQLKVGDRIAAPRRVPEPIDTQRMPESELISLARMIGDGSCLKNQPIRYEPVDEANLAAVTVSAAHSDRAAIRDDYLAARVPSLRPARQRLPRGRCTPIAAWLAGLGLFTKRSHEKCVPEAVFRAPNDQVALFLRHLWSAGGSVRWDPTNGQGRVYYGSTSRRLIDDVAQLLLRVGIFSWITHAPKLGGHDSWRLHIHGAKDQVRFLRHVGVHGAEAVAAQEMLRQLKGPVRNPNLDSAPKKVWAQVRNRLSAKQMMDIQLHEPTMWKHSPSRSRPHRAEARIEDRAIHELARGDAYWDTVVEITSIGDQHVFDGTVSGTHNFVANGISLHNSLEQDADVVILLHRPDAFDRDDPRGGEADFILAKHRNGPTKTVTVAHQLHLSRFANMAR
# [11] = viability loss of HPDE-C7K cells – cell-based, fluorescence, HTS, primary screen (AID 431); format: functional; settings: Homo sapiens
# [12] = target: T4, Apoptotic protease-activating factor 1 (Homo sapiens, UniProt O14727); format: functional
# T4 sequence (O14727 whole entry): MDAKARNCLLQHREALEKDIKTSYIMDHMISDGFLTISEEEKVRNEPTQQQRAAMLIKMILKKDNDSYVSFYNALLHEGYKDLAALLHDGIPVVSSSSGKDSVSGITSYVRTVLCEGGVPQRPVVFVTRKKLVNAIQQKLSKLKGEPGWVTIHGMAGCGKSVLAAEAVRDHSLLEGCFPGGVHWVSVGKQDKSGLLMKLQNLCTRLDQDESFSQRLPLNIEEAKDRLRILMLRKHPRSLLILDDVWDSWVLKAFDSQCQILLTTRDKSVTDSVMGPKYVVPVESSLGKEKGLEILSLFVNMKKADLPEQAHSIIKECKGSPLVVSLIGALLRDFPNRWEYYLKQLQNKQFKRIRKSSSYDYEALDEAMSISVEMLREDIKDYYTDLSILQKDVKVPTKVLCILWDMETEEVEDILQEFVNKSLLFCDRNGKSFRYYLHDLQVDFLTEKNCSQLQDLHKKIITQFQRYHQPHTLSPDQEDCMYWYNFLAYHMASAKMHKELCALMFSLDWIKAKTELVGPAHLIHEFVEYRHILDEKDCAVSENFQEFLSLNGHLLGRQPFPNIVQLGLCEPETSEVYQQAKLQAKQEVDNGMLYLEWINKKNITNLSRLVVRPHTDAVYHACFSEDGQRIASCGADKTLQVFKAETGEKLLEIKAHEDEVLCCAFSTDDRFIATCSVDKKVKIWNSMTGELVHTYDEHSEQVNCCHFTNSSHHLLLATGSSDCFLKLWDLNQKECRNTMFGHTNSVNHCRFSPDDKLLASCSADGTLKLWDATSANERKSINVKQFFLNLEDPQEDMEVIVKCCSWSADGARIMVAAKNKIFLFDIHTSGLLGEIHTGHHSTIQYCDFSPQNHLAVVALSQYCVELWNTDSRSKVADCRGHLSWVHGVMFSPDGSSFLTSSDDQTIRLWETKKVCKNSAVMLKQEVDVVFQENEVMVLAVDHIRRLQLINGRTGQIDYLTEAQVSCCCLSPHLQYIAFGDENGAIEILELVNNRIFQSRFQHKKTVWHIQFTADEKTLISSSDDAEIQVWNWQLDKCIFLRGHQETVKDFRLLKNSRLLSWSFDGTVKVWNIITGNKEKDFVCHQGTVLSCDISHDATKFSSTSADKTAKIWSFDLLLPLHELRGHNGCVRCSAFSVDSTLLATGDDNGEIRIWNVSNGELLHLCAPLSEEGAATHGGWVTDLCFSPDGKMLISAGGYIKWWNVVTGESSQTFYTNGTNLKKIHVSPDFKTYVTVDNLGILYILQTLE
# [13] = viability of PTEN-deleted HCT116 cells – cell-based, HCT116 PTEN knockout, dose response (AID 1047); format: functional;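 note: HCT116 colon tumor cells with PTEN knocked out; cells exposed to compound for 60 hours before readout; potency for loss of cell viability measured by luminescence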
# [14] = viability of HCT116 lacking mutant beta-catenin – cell-based, human colon tumor, dose response (AID 1045); format: functional;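 note: HCT116 colon tumor cells with beta catenin knocked out; cells exposed to compound for 60 hours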
# [15] = decrease of insulin promoter-GFP reporter – imaging, high-content screening, mouse beta cells (AID 1628); format: functional; settings: MIN6
# [16] = tested on: BJ; experiment: cells; format: functional, cell-based; settings: Homo sapiens
# [17] = alpha-synuclein stem-loop luciferase translation blockers – H4 neuroglioma cells, luminescence, confirmation (AID 1988); format: functional, cell-based
# [18] = target: T5, Heat shock factor protein 1 (Mus musculus, UniProt P38532); experiment: enhancement of HSF1-driven luciferase signal – cell-based, NIH3T3, luminescence, dose retest, confirmation (AID 435004); format: functional;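 note: stress induced by proteasome inhibitor MG132 added 30 min after compound; luciferase reporter driven by HSF1 response element in NIH3T3 cells; actives raise luminescence as potentiators of the MG132 stress response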
# T5 sequence (P38532 whole entry): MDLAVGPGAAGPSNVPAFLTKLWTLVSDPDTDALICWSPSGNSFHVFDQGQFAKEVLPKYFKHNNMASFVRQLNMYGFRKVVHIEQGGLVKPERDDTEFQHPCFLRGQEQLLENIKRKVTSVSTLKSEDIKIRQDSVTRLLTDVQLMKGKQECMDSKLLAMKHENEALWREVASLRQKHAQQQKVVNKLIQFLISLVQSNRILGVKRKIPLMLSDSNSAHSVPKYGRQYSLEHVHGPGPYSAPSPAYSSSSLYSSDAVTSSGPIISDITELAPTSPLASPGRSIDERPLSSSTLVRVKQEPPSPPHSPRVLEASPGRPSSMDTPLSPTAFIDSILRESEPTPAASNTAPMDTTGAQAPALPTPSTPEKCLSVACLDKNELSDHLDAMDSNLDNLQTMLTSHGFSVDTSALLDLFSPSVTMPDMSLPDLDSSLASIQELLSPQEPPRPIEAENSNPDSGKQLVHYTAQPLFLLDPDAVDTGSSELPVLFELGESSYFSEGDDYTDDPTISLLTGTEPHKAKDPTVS
# [19] = Luminescence Cell-Based Dose Response HTS to Identify Inhibitors of 5'UTR Stem-Loop Driven Prion Protein mRNA Translation in H4 Neuroglioblastoma Cells. [Related pubchem assays: 1827 (Project Summary), 1813 (Primary HTS)]; format: functional
# [20] = MIN6 cell viability loss – mouse insulinoma, cytotoxicity control, dose response (AID 2122); format: functional;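 note: confirmatory high-throughput counterscreen run to flag cytotoxic compounds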
# [21] = luciferase reporter signal suppression in cells – H4 neuroglioma cells, luminescence, dose response (AID 1990); format: functional, cell-based
# [22] = DRD fibroblast viability loss – cell-based, non-viral oncogenic, luminescence, dose response (AID 1934); format: functional; settings: Homo sapiens
# [23] = tested on: Vero; experiment: mammalian cell viability reduction – secondary assay, cytotoxicity control for West Nile virus antiviral project, dose response (AID 1650); format: functional; settings: Chlorocebus sabaeus
# [24] = reduced cellular PGC1a acetyl-lysine signal – cell-based, cherry-picked samples, dose response (AID 720514); format: functional;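 note: potency may reflect raised or lowered acetylation signal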
# [25] = tested on: BJ; experiment: BJ-TERT-LT-ST fibroblast viability loss – cell-based, RAS-independent, luminescence, dose response (AID 1935); format: functional; settings: Homo sapiens;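 note: BJ fibroblasts immortalized with TERT plus LT and ST oncogenes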
# [26] = tested on: BJ; experiment: BJ-TERT fibroblast viability loss – cell-based, RAS-independent, luminescence, dose response (AID 1933); format: functional; settings: Homo sapiens
# [27] = target: Estrogen receptor (Homo sapiens, UniProt P03372);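 note: potency for inhibiting coactivator peptide recruitment to the receptor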
# Estrogen receptor, sequence (P03372 whole entry): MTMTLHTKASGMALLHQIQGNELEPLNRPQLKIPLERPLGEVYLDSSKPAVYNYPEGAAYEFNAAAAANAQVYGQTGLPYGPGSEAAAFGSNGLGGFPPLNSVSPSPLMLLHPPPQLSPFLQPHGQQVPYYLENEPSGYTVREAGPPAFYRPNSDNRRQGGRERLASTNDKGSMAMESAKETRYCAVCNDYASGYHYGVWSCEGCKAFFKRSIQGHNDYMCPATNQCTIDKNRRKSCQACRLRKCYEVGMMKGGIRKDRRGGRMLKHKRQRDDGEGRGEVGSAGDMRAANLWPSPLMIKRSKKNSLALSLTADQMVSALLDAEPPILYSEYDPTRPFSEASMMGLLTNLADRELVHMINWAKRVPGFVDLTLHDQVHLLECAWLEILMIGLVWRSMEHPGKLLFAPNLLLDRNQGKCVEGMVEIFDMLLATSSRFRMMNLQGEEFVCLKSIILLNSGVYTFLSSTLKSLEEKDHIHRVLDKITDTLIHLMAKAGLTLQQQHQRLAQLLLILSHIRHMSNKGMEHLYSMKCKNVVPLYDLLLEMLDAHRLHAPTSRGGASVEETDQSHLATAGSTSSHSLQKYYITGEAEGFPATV
# Ion channel NompC, sequence (Q7T1G6 whole entry): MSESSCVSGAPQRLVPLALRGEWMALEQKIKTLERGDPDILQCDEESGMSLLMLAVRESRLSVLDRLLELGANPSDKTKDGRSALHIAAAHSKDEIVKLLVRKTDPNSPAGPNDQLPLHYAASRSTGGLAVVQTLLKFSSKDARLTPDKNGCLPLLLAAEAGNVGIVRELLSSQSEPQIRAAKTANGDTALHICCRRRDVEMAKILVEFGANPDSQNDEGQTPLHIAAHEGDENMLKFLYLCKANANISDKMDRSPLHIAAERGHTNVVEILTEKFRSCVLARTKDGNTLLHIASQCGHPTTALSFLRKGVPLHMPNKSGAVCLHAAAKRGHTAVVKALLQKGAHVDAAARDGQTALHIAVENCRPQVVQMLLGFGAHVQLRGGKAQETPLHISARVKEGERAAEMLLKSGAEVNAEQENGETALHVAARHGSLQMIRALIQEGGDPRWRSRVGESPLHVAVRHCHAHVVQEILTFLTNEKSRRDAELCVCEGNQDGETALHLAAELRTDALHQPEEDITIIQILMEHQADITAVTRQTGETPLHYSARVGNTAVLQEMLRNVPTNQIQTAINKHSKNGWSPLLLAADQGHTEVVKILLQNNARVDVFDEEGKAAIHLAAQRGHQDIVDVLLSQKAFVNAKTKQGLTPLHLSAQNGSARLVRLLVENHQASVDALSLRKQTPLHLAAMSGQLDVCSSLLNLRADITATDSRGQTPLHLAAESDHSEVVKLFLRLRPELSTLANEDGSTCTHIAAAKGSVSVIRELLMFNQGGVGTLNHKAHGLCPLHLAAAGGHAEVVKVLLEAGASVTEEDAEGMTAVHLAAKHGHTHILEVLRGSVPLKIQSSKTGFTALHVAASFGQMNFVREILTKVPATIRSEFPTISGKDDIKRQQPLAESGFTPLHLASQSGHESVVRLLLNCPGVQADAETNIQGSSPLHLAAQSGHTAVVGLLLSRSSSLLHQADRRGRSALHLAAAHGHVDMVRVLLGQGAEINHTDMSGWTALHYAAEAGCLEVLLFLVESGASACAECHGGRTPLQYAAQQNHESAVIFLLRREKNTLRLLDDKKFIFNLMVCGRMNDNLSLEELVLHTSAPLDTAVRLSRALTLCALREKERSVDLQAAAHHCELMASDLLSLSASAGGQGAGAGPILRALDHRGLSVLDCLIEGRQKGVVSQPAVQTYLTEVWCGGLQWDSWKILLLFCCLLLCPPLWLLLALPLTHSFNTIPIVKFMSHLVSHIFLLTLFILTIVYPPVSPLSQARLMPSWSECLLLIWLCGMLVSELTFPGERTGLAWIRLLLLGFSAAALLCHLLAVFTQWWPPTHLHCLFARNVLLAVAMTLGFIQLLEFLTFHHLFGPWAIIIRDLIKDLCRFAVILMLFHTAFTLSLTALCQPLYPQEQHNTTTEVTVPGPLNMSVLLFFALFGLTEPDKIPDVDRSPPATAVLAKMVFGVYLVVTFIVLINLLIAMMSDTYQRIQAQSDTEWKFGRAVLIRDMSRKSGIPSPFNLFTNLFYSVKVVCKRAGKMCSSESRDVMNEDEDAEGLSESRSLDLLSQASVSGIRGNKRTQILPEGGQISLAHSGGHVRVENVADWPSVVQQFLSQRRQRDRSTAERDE
smiles,measurement,setting,value
CC(C)N(C(=O)c1ccc2nc(-c3ccccc3)c(-c3ccccc3)nc2c1)C(C)C,EC50,[1],> 29.9 µM (not active)
same,EC50,[2],1.52 µM (active)
CN(C)CC#CCC(O)(c1ccccc1)C1CCCC1 (stereo not drawn),EC50,[3],< 0.1 µM (active)
same,EC50,[4],0.016 µM (active)
same,EC50,[5],> 60 µM (not active)
CC12CCC(=O)N1C(C(=O)OCC(=O)Nc1sccc1C#N)CS2 (stereo not drawn),IC50,[6],14.4 µM (active)
same,IC50,[7],0.118 µM (not active)
COc1ccc(-c2nnc(SC(=O)N3c4ccccc4Sc4ccccc43)o2)cc1,EC50,[8],12.5 µM (active)
same,EC50,[9],0.451 µM (active)
same,AC50,[10],1.79 µM (active)
same,EC50,[11],8.96 µM (active)
Nc1c(C(=O)NCc2ccc3c(c2)OCO3)c2nc3ccccc3nc2n1CCCN1CCOCC1,EC50,[8],9.92 µM (active)
same,IC50,[12],76.8 µM (active)
same,EC50,[13],20.6 µM (active)
same,EC50,[11],13.2 µM (active)
same,EC50,[14],20.2 µM (active)
CN(C)CCN(C(=O)c1ccc(S(=O)(=O)N2CCc3ccccc32)cc1)c1nc2ccc(F)cc2s1,EC50,[3],< 0.1 µM (active)
same,EC50,[4],0.188 µM (active)
same,EC50,[5],> 60 µM (not active)
Cn1c(Cl)cnc1C1CC(=O)c2cc(Cl)ccc2O1 (stereo not drawn),IC50,[15],2.95 µM (active)
same,EC50,[16],8.32 µM (inconclusive)
same,EC50,[17],> 120 µM (not active)
same,EC50,[18],38.8 µM (active)
same,EC50,[19],10.1 µM (active)
same,IC50,[20],1.98 µM (active)
same,EC50,[21],10.9 µM (active)
same,EC50,[22],7.73 µM (active)
same,CC50,[23],17.9 µM (active)
same,AC50,[24],16.9 µM (active)
same,EC50,[25],7.45 µM (inconclusive)
same,EC50,[26],8.07 µM (active)
C/N=C1\SC(CC(=O)Nc2ccc(C(C)=O)cc2)C(=O)N1C (stereo not drawn),IC50,[6],> 50 µM (not active)
same,IC50,[27],> 50 µM (not active)
